How the values were obtained:
Salmonella enterica = assay: MIC broth microdilution; type: cell-based; settings: Salmonella enterica ATCC14208, 24 h, 37 °C
Method: (§1) The antimicrobial activity of cholinium-based ILs with an ester group in the alkyl chain was evaluated against a range of representative bacteria and fungi.
(§2) Antibacterial assays were performed against the following microorganisms: Bacillus subtilis ATCC 6633, Staphylococcus epidermidis ATCC 12228, Staphylococcus aureus ATCC 29213, Micrococcus luteus ATCC10240, Listeria monocytogenes ATCC 15313, methicillin-resistant Staphylococcus aureus ATCC 43300, Escherichia coli ATCC 8739, Acinetobacter baumannii ATCC 19606, Klebsiella aerogenes ATCC 13048, Pseudomonas aeruginosa 9027, and Salmonella enterica ATCC14208. The antibacterial activity was assessed in vitro using the minimum inhibitory concentration (MIC) method. MIC is defined as the lowest concentration of an antimicrobial agent that prevents visible bacterial growth after 24 h of incubation at 37 °C. The ionic liquids were dissolved in Mueller–Hinton broth (MBH) at concentrations ranging from 1 to 256 μg/mL. The broth was added (200 μL) to appropriate wells of a 96-well polystyrene microtitre plate. Then, 10 μL of a nutrient broth starter culture of each bacterial strain was added to achieve final inocula of approximately […] colony forming units (CFU)/mL. A growth control using nutrient broth medium without the ionic liquid was included. The plates were incubated 37 °C for 24 h. Bacterial growth was initially observed visually, with increased turbidity indicating cell growth. […] A color change of resazurine from blue to pink indicated bacterial metabolic activity. All the experiments were performed in triplicate to ensure reproducibility.

Acinetobacter baumannii = assay: MIC broth microdilution; type: cell-based; settings: ATCC19606; Acinetobacter baumannii ATCC 19606, 24 h, 37 °C
Method: as §1, §2

Klebsiella aerogenes = assay: MIC broth microdilution; type: cell-based; settings: ATCC13048; Klebsiella aerogenes ATCC 13048, 24 h, 37 °C
Method: as §1, §2

Micrococcus luteus = assay: MIC broth microdilution; type: cell-based; settings: Micrococcus luteus ATCC10240, 24 h, 37 °C
Method: as §1, §2

Escherichia coli = assay: MIC broth microdilution; type: cell-based; settings: ATCC8739; Escherichia coli ATCC 8739, 24 h, 37 °C
Method: as §1, §2

Listeria monocytogenes = assay: MIC broth microdilution; type: cell-based; settings: ATCC15313; Listeria monocytogenes ATCC 15313, 24 h, 37 °C
Method: as §1, §2

Pseudomonas aeruginosa = assay: MIC broth microdilution; type: cell-based; settings: Pseudomonas aeruginosa 9027, 24 h, 37 °C
Method: as §1, §2

Staphylococcus aureus = assay: MIC broth microdilution; type: cell-based; settings: ATCC29213; Staphylococcus aureus ATCC 29213, 24 h, 37 °C
Method: as §1, §2

[1] = tested on: Staphylococcus epidermidis; assay: MIC broth microdilution; type: cell-based; settings: ATCC12228; Staphylococcus epidermidis ATCC 12228, 24 h, 37 °C
Method: as §1, §2

MRSA = assay: MIC broth microdilution; type: cell-based, methicillin-resistant Staphylococcus aureus; settings: Staphylococcus aureus, ATCC 43300 / MRSA; MRSA ATCC 43300, 24 h, 37 °C
Method: as §1, §2

Candida glabrata = assay: Antifungal MIC broth microdilution; type: cell-based; settings: Nakaseomyces glabratus, ATCC66032; Candida glabrata ATCC 66032, RPMI 1640, 24 h, 30 °C
Method: as §1
(§3) The antifungal activity was evaluated against the following yeasts: Candida albicans ATCC 90028, Candida tropicalis ATCC 7349, Candida parapsilosis ATCC 22019, Candida glabrata ATCC 66032. Frozen yeast stocks were inoculated into Sabourauds’s agar (SBA) and culture plates and incubated at 35 °C for 24 h. Three to four colonies of each strain were dispersed in sterile medium, Roswell Park Memorial Institute medium (RPMI 1640 medium), to obtain dispersions with a turbidity equivalent to 0.5 on the MacFarland scale (McFarland DEN-1B Grant-bio model densitometer). Minimum fungicidal concentrations (MFC) values—the lowest concentration of an antimicrobial agent that prevents the establishment of visible microbial growth after 24 h at 30 °C—were used to determine in vitro antifungal activity. MFCs were determined using a broth microdilution assay. Serial dilutions of each IL, ranging from 512 to 2 µg/mL, were dissolved in RPMI 1640 medium and dispensed (100 µL) into the appropriate wells of a 96-well polystyrene microtiter plate. The nutrient broth starter culture of each yeast strain (100 μL) was added to achieve a final inoculum of approximately 7.5 × 10^5 CFU per mL for yeast. Nutrient broth medium without the compound was used as a growth control. The development of turbidity in an inoculated medium is a function of growth and reflects an increase in both mass and cell number. To confirm this observation, 20 μL of resazurin at 0.015% w/v was added to each well and allowed to react for approximately 2 h at 30 °C. After the incubation period, the indicator of microbial growth, i.e., a change from blue to pink, confirmed the MIC value.

Candida parasilopsis = assay: Antifungal MIC broth microdilution; type: cell-based; settings: Candida parapsilosis ATCC 22019, RPMI 1640, 24 h, 30 °C
Method: as §1, §3

Candida albicans = assay: Antifungal MIC broth microdilution; type: cell-based; settings: ATCC90028; Candida albicans ATCC 90028, RPMI 1640, 24 h, 30 °C
Method: as §1, §3

Candida tropicalis = assay: Antifungal MIC broth microdilution; type: cell-based; settings: ATCC7349; Candida tropicalis ATCC 7349, RPMI 1640, 24 h, 30 °C
Method: as §1, §3

Structure (SMILES)	MIC (Salmonella enterica)	MIC (Acinetobacter baumannii)	MIC (Klebsiella aerogenes)	MIC (Micrococcus luteus)	MIC (Escherichia coli)	MIC (Listeria monocytogenes)	MIC (Pseudomonas aeruginosa)	MIC (Staphylococcus aureus)	MIC [1]	MIC (MRSA)	MIC (Candida glabrata)	MIC (Candida parasilopsis)	MIC (Candida albicans)	MIC (Candida tropicalis)
CCCCCCCCCCOC(=O)C[N+](C)(C)CCO [C10ECholBr]	> 256 µg/mL	> 256 µg/mL	> 256 µg/mL	> 256 µg/mL	> 256 µg/mL	> 256 µg/mL	> 256 µg/mL	> 256 µg/mL	> 256 µg/mL	> 256 µg/mL	> 256 µg/mL	> 256 µg/mL	> 256 µg/mL	> 256 µg/mL
CCCCCCCCCCCCOC(=O)C[N+](C)(C)CCO [C12ECholBr]	> 256 µg/mL	> 256 µg/mL	> 256 µg/mL	16 µg/mL	> 256 µg/mL	> 256 µg/mL	> 256 µg/mL	64 µg/mL	64 µg/mL	64 µg/mL	32 µg/mL	> 256 µg/mL	64 µg/mL	> 256 µg/mL
CCCCCCCCCCCCCCOC(=O)C[N+](C)(C)CCO.[Br-] [C14ECholBr, N-(2-hydroxyethyl)-N,N-dimethyl-2-oxo-2-(tetradecyloxy)ethan-1-aminium bromide]	> 256 µg/mL	> 256 µg/mL	> 256 µg/mL	8 µg/mL	> 256 µg/mL	> 256 µg/mL	> 256 µg/mL	128 µg/mL	64 µg/mL	> 256 µg/mL	> 256 µg/mL	> 256 µg/mL	> 256 µg/mL	> 256 µg/mL
